Laboratory results taken from publication PMC12567082, “Silver(I) Complexes Bearing S-Alkyl Thiosalicylic Acid Derivatives: DNA/BSA Binding and Antitumor Activity In Vitro and In Vivo” (Pharmaceutics, 2025).

How the values were obtained:
4T1 cells = test: Colony formation assay; format: cell-based, mouse; details: 0.5 µM, 14 days
Method: Cancer 4T1 cells were seeded in a six-well plate (500 cells per well) and incubated with C3 (0.5 µM) or DMEM only for 14 days. After fixation, the colonies were stained using crystal violet.

BSA = target: T1, BSA (Bos taurus, UniProt P02769); test: BSA tryptophan fluorescence quenching; format: binding, bovine
T1 construct: purchased Sigma-Aldrich
T1 sequence (P02769 25-607): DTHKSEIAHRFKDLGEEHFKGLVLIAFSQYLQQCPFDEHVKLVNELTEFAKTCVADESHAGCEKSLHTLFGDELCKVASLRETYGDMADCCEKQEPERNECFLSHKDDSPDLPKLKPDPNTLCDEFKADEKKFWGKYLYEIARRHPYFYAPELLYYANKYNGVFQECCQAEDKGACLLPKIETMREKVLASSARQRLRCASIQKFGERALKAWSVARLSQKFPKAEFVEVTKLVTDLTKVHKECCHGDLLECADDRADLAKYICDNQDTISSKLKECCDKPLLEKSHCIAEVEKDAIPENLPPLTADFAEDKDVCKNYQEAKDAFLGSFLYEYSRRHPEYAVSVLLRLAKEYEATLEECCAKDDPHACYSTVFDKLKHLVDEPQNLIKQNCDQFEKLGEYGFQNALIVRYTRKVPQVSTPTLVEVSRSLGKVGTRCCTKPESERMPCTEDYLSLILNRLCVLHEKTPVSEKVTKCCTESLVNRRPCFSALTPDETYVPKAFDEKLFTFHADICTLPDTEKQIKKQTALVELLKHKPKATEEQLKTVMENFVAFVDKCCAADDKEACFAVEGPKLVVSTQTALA
Method: The protein binding study was carried out using tryptophan fluorescence quenching experiments with BSA. […] Fluorescence emission spectra were recorded between 300 and 500 nm, with excitation at 295 nm.
The quenching constant Ksv was determined based on the Stern–Volmer relationship, as described by Equation (3):I0/I = 1 + kqτ0[Q] = 1 + Ksv[Q](3)
In this equation, I0 and I refer to the fluorescence intensities of BSA measured without and with the quencher (complex), τ0 represents the average fluorescence lifetime of free BSA (∼10^−8 s), and [Q] indicates the quencher concentration.
Parameters such as association binding constant (K) and the number of binding sites per albumin (n) were obtained from Scatchard Equation (4):(ΔI/I0)/[Q] = nK − KΔI/I0(4)
To minimize inner filter, both intensities of fluorescence originating from excitation and emission light absorption and re-absorption were corrected by employing Equation (5); Icor and Iobs are the corrected and observed fluorescence intensities, respectively, and Aex and Aem represent the absorbance of the metal complex at the excitation and emission wavelengths, respectively.Icor = Iobs · […]^(Aex + Aem)/2(5)

[1] = tested on: mouse mesenchymal stem cells (mMSC); test: MTT assay mMSC; format: cell-based; details: 48 h
Method: (§1) Mouse breast cancer (4T1), human breast cancer (MDA-MB-468), mouse colon cancer (CT26), human colon cancer (HCT-116), mouse lung cancer (LLC1), human lung cancer (A549), mouse mesenchymal stem cells (mMSC), and human fibroblast cell lines (MRC-5) were used in this study and were consistently cultured in complete Dulbecco’s Modified Eagle Medium (DMEM) (Sigma-Aldrich, St. Louis, MO, USA) in incubator (5% CO2) under standard conditions. Complete DMEM was Dulbecco’s Modified Eagle Medium supplemented with 10% fetal bovine serum (FBS), 1 mmol/L penicillin–streptomycin, 1 mmol/L mixed nonessential amino acids, and 2 mmol/L L-glutamine (Sigma-Aldrich, St. Louis, MO, USA). All cancer cell lines and MRC-5 cell line were obtained from American Type Culture Collection (ATCC, Manassas, VA, USA), but mMSC was manufactured by Gibco (Middlesex County, MA, USA).
(§2) In 96-well microplates, we seeded cancer and non-cancer cells, more exactly 5 × 10^3 cells per well in 100 μL of complete DMEM (Sigma-Aldrich, St. Louis, MO, USA). […] Tested concentration range for all metal-based substances was 3.9–500 μM. After incubation with MTT solution (5 mg/mL; pH 7.2) for 4 h, optical density was determined using Zenyth 3100 microplate multimode detector (Salzburg, Austria). All experiments were performed three times, each in triplicate, and the IC50 values as well as selectivity indexes (IC50 for mMSC or MRC-5/IC50 for mouse or human cancer cells) were calculated.

[2] = tested on: human fibroblast cell lines (MRC-5); test: MTT assay MRC-5; format: cell-based
Method: as §1, §2

[3] = tested on: human breast cancer (MDA-MB-468); test: MTT assay MDA-MB-468; format: cell-based
Method: as §1, §2

CT-DNA [4] = test: EB–CT-DNA fluorescence quenching; format: binding, calf; details: EB–CT-DNA 8.52 × 10^−5 M, PBS pH 7.4
Method: All samples were prepared in phosphate-buffered saline (PBS, pH 7.4). Stern–Volmer Equation (2) was used to interpret the fluorescence quenching data.

CT-DNA [5] = test: UV-Vis absorption titration with CT-DNA; format: binding, calf; details: ΔG = −RT lnKb
Method: All DNA-binding studies were conducted in 0.01 M phosphate-buffered saline (PBS, pH 7.40) at 25 °C. […] To eliminate absorbance from CT-DNA, identical amounts of DNA were added to both the test and reference solutions prior to spectral recording.
Intrinsic binding constants (Kb) were calculated using the equation to determine the DNA-binding affinities of the complexes (1):[DNA]/(εa − εf) = [DNA]/(εb − εf) + 1 [Kb(εb − εf)](1)
[DNA] represents the concentration of DNA; apparent extinction coefficient, εa, was calculated as the ratio of the observed absorbance to the concentration of the complex (Aobs/[complex]); and εb and εf correspond to the extinction coefficients of the complex in the fully bound and free forms, respectively. Kb was determined from the ratio of the slope to the intercept obtained from the corresponding linear plots.

human lung cancer (A549) = test: MTT assay A549; format: cell-based
Method: as §1, §2

## CCCSc1ccccc1C(=O)[O][Ag].CCCSc1ccccc1C(=O)[O][Ag] [C3, [Ag2(S-propyl-thiosal)2]]
4T1 cells
  4T1 colony formation: almost total inhibition
BSA; BSA 2 µM
  kq (quenching rate constant): (9.6 ± 0.1) × 10^12 M^−1 s^−1
BSA; BSA 2 µM, λex 295 nm
  Ksv (Stern–Volmer constant): (9.6 ± 0.1) × 10^4 M^−1
BSA; Scatchard equation
  K (binding constant): (1.1 ± 0.1) × 10^5 M^−1
  n (number of binding sites): 1.1
[1]
  IC50: 4.22 ± 0.33 µM
[2]; MRC-5, 24 h
  IC50: 38.1 ± 1.13 µM
[2]; MRC-5, 48 h
  IC50: 43.3 ± 1.1 µM
[3]; MDA-MB-468, 24 h
  IC50: 15.5 ± 1.21 µM
  Selectivity Index (IC50 mMSC or MRC-5/ IC50 Cancer Cell): 2.46
[3]; MDA-MB-468, 48 h
  IC50: 8.76 ± 1.24 µM
  Selectivity Index (IC50 mMSC or MRC-5/ IC50 Cancer Cell): 4.95
CT-DNA [4]
  Ksv EB (Stern–Volmer constant): (1.4 ± 0.1) × 10^4 M^−1
CT-DNA [5]
  ΔG (Gibbs free energy): -7.29 kcal/mol
Human lung cancer (A549); A549, 24 h
  IC50: 55.8 ± 1.83 µM
  Selectivity Index (IC50 mMSC or MRC-5/ IC50 Cancer Cell): 0.68
Human lung cancer (A549); A549, 48 h
  IC50: 66.3 ± 1.18 µM
  Selectivity Index (IC50 mMSC or MRC-5/ IC50 Cancer Cell): 0.65
